Assay results reported in patent US20260207621A1 (Vividion Therapeutics, Inc., priority 2022, published 2026).

Columns and labels:
[1] = tested on: Nrf2; assay: Nrf2 antagonism assay: ARE luciferase reporter in KYSE-70 cells; assay type: cell-based; details: positive Imax corresponds to Nrf2 antagonism; for Emax: Homo sapiens, KYSE-70, KYSE-70 cells, read-out: KYSE70 Cellular ARE Luciferase Imax (%)
From the text: NRF2 binds to a promoter region, antioxidant response element (ARE), to initiate expression of multiple genes. ARE luciferase reporter assays are used to test whether a ligand can activate or repress the expression of target genes using luciferase as a reporter gene.
KYSE-70 is an esophageal squamous cell carcinoma cell line with a Nrf2 mutation at amino acid position W24C. This mutation lowers the affinity between the E3 ligase that includes KEAP1 and Nrf2, resulting in a state in which the synthesis rate of new Nrf2 is faster than the E3's degradation rate of Nrf2, resulting in a “Nrf2 high” state. In KYSE-70 cells, genes are inserted directly after the ARE that trigger the expression of luciferase. Without a NRF2 antagonist in this modified KYSE70 cell line which has an inherently “NRF2 high state”, luciferase is expressed, and a signal is observed.
Nrf2 antagonists bind at C151 of KEAP1 and stabilize the E3 which results in an increased degradation rate of Nrf2. Increased degradation of Nrf2 results in less expression of luciferase, and therefore a less intense signal.
An IC50 is generated from the dose-response curve and an Imax. A positive Imax corresponds to Nrf2 antagonism. Imax >90% correlates with in vivo tumor grown inhibition. Compounds with Imax >50% were included in this description.

[2] = biological target: T1, KEAP1 C151 (Homo sapiens, UniProt Q14145); assay: Nrf2 TMT measurement: in vitro TE50 for KEAP1 C151 (IA-DTB competition, targeted TMT mass spectrometry) in MDA-MB-468 cell lysate; assay type: binding; details: in vitro target engagement of KEAP1 C151, targeted TMT, read-out: KEAP1_C151 TE50
T1 construct: treating 500 μg of cell lysate generated from MDA-MB-468 breast cancer cells with DMSO or compound; endogenous in cells; host or cells: MDA-MB-468 breast cancer cell lysate
Experimental: In vitro TE50 values for KEAP_C151 were obtained by treating 500 μg of cell lysate generated from MDA-MB-468 breast cancer cells with DMSO or compound for 1 hour at room temperature followed by the addition of 200 μM IA-DTB (in DMSO) for one hour at room temperature. Samples were then precipitated by the addition of 8× ice cold acetonitrile and incubated at −80° C. for two hours. Protein was then pelleted by centrifugation (4,200 RPM, 45 min, 4° C.). The pelleted material was resuspended in 9M Urea, 50 mM ammonium bicarbonate and proteins were reduced and alkylated by the addition of DTT and iodoacetamide (10 and 30 mM, respectively). Following reduction and alkylation, samples were exchanged into 2M urea (Zeba spin desalting plates, Thermo Fisher) and digested with Trypsin. IA-DTB labeled peptides were isolated with streptavidin agarose resin. Enriched peptides were eluted by the addition of 50% acetonitrile (ACN) 0.1% Formic Acid (FA) and dried in a SpeedVac vacuum concentrator.
Dried peptides were resuspended in 0.2 M EPPS pH 8.5 and treated with 6.5 μL of 11-plex tandem mass tag (TMT) (8.3 μg/μL in dry ACN) for 2 hours at room temperature. Reactions were quenched by the addition of 6.5 μL of 5% Hydroxylamine. Samples were then combined and desalted on a Biotage Evolute express ABN plate (600-0010-PX01).
Targeted TMT. Targeted TMT measurements were collected using an Orbitrap LumosTribrid Mass Spectrometer (Thermo Scientific) coupled to an UltiMate 3000 Series Rapid Separation LC system and autosampler (Thermo Scientific Dionex). Peptides were eluted onto a custom C18 capillary analytical column (75-μm inner diameter fused silica, packed with Acclaim PepMap C18 resin (Thermo Scientific)) using an Acclaim PepMap 100 (Thermo 164535) loading column, and separated at a flow rate of 1.0 μl min−1. Data were acquired using a specific MS3-based TMT method targeting the peptide containing KEAP1 C151 (C(+324.2)[…], +3 charge state) where MS2 peptide fragmentation is triggered upon detection of the peptide precursor ion. Subsequent MS3 analysis was then performed using pre-selected peptide fragment ions that were isolated for fragmentation using synchronous precursor selection. RAW files were converted to MZXML format and searched with the SEQUEST algorithm using the MassPike software package. TMT quantitation was performed with a filter requiring at least ten summed signal-to-noise for control channels. Quantified signals were used for dose response curve-fitting and IC50 calculation using R's drc package.

T1 sequence (Q14145 whole entry): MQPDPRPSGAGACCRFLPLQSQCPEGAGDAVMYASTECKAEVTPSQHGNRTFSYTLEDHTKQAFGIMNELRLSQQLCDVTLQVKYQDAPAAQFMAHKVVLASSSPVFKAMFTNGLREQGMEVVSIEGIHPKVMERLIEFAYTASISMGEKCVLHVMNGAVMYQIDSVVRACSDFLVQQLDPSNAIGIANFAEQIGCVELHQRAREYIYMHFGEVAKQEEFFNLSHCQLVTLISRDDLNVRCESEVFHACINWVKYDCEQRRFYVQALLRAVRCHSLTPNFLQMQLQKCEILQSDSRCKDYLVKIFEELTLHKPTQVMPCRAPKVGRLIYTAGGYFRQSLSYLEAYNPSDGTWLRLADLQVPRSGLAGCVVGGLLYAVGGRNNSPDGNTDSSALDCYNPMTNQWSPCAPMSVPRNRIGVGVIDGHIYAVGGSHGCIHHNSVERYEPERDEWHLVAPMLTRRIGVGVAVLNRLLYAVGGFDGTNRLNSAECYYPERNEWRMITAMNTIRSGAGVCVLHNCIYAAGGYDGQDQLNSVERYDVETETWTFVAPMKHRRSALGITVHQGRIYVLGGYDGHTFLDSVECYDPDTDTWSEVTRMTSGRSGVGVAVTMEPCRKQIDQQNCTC

IC50 [2]	Compound	Emax [1]	KYSE70 Cellular ARE Luciferase Imax (%) ([1]; KYSE-70 cells)
770 nM	C=CC(=O)N1CCOCC12COc1c(-c3ccc(F)c(C(N)=O)c3)cc(Cl)cc12 (single isomer, unassigned) [Compound 143, 5-(4′-acryloyl-5-chloro-2H-spiro[benzofuran-3,3′-morpholin]-7-yl)-2-fluorobenzamide]	56%	
1670 nM	C=CC(=O)N1CC2(CCCC2)OCC1(C)c1cc(Cl)cc(-c2cc(N)ncn2)c1 (single isomer, unassigned) [Compound 170, 1-(8-(3-(6-aminopyrimidin-4-y1)-5-chlorophenyl)-8-methyl-6-oxa-9-azaspiro[4.5]decan-9-yl)prop-2-en-1-one]	81%	
26 nM	C=CC(=O)N1CCOCC1c1cc(Cl)nc(-c2ccnc(C)n2)c1 (single isomer, unassigned) [Compound 121, 1-(3-(2-chloro-6-(2-methylpyrimidin-4-yl)pyridin-4-yl)morpholino)prop-2-en-1-one]	82%	
33 nM	C=CC(=O)N1CCOC[C@H]1c1cc(Cl)cc(-c2ncc(F)cn2)c1 (single isomer, unassigned) [Compound 19]	84%	
290 nM	C=CC(=O)N1CCOC[C@H]1c1cc(Cl)cc(-c2cc(N)ncn2)c1 (single isomer, unassigned) [Compound 80]	94%	
110 nM	C=CC(=O)N1CC(C)(C)OC[C@H]1c1cc(Cl)cc(-c2ncc(N)c(N)n2)c1 (single isomer, unassigned) [Compound 287]	96%	
7.3 nM	C=CC(=O)N1[C@H](c2cc(Cl)nc(-c3ccc(F)c(C(N)=O)c3)c2)COC[C@H]1C(F)F (single isomer, unassigned) [Compound 180]	90%	
51 nM	C=CC(=O)N1CC(C)(C)OC[C@H]1c1cc(Cl)cc(-c2ccnc(N)n2)c1 (single isomer, unassigned) [Compound 148]	93%	
12 nM	C=CC(=O)N1[C@H](CO)COC[C@H]1c1cc(Cl)nc(-c2ccn3ccnc3c2)c1 (single isomer, unassigned) [Compound 157]	81%	
90 nM	C=CC(=O)N1C[C@@H](C)N(C(=O)C2CC2)C[C@H]1c1cc(Cl)cc(-c2ncc(N)cn2)c1 (single isomer, unassigned) [Compound 245]	53%	
120 nM	C=CC(=O)N1CCOC[C@H]1c1cc(Cl)cc(-c2ccc(N)nn2)c1 (single isomer, unassigned) [Compound 128]	70%	
320 nM	C=CC(=O)N1CC2(COC2)C1c1cc(Cl)cc(-c2ncnc(N)n2)c1 (single isomer, unassigned) [Compound 159, 1-(5-(3-(4-amino-1,3,5-triazin-2-yl)-5-chlorophenyl)-2-oxa-6-azaspiro[3,3]heptan-6-yl)prop-2-en-1-one]	63%	
10 nM	C=CC(=O)N1CCOC[C@H]1c1cc(Cl)cc(-c2ncc(NC(C)=O)cn2)c1 (single isomer, unassigned) [Compound 248]	89%	
26 nM	C=CC(=O)N1CCOC[C@H]1c1cc(Cl)cc(-c2cccc(C)n2)c1 (single isomer, unassigned) [Compound 98]	76%	
47 nM	C=CC(=O)N1CC2(CC2)OCC1c1cc(Cl)cc(-c2ccnc(N)n2)c1 (single isomer, unassigned) [Compound 84, 1-(6-(3-(2-aminopyrimidin-4-y1)-5-chlorophenyl)-4-oxa-7-azaspiro[2.5]octan-7-yl)prop-2-en-1-one]	93%	
72 nM	C=CC(=O)N1CC(C)(C)OC[C@H]1c1cc(Cl)cc(-c2ccnc(C(N)=O)c2)c1 (single isomer, unassigned) [Compound 133]	85%	

IC50 [2]	Compound	Emax [1]	KYSE70 Cellular ARE Luciferase Imax (%) ([1]; KYSE-70 cells)
< 6.4 nM	C=CC(=O)N1CCOCC1c1cc(Cl)nc(-c2cc(C(N)=O)ncn2)c1 (single isomer, unassigned) [Compound 125, 6-(4-(4-acryloylmorpholin-3-yl)-6-chloropyridin-2-yl)pyrimidine-4-carboxamide]	91%	
25 nM	C=CC(=O)N1CCOC[C@H]1c1cc(Cl)cc(-c2nc(C)cc(N)n2)c1 (single isomer, unassigned) [Compound 95]	94%	
350 nM	C=CC(=O)N1CCOC[C@H]1c1cc(Cl)cc(-n2cnc(N)n2)c1 [Compound 215, (R)-1-(3-(3-(3-amino-1H-1,2,4-triazol-1-yl)-5-chlorophenyl)morpholino)prop-2-en-1-one]	65%	
2.6 nM	C=CC(=O)N1CCN(S(C)(=O)=O)CC1c1cc(Cl)cc(-c2ccnc(NC(C)=O)c2)c1 (single isomer, unassigned) [Compound 6, N-(4-(3-(1-acryloyl-4-(methylsulfonyl)piperazin-2-yl)-5-chlorophenyl)pyridin-2-yl)acetamide]	58%	
37 nM	C=CC(=O)N1CCOC[C@H]1c1cc(Cl)cc(-c2ccnc(C#N)n2)c1 (single isomer, unassigned) [Compound 106]	67%	
94 nM	C=CC(=O)N1[C@H](C)COC[C@H]1c1cc(Cl)cc(-c2ncc(N)cn2)c1 (single isomer, unassigned) [Compound 130]	89%	
150 nM	C=CC(=O)N1CCS(=O)(=O)CC1c1cc(Cl)cc(C2CCOCC2)c1 (racemic) [Compound 28, 1-(3-(3-chloro-5-(tetrahydro-2H-pyran-4-yl)phenyl)-1,1-dioxidothiomorpholino)prop-2-en-1-one]	50%	
18 nM	C=CC(=O)N1CC(C)(C)OCC1c1cc(Cl)nc(-c2ccn3ccnc3c2)c1 (single isomer, unassigned) [Compound 78, 1-(5-(2-chloro-6-(imidazo[1,2-a]pyridin-7-yl)pyridin-4-yl)-2,2-dimethylmorpholino)prop-2-en-1-one]	78%	
300 nM	C=CC(=O)N1[C@H](C)COC[C@H]1c1cc(Cl)cc(-c2cc(N)ncn2)c1 (single isomer, unassigned) [Compound 131]	91%	
330 nM	C=CC(=O)N1CC2(CC2)OCC1(C)c1cc(Cl)cc(-c2ncc(F)cn2)c1 (single isomer, unassigned) [Compound 165, 1-(6-(3-chloro-5-(5-fluoropyrimidin-2-yl)phenyl)-6-methyl-4-oxa-7-azaspiro[2.5]octan-7-yl)prop-2-en-1-one]	53%	
< 10 nM	C=CC(=O)N1CCOC[C@H]1c1cc(Cl)cc(-c2ccc3c(c2)C(=O)NC3)c1 (single isomer, unassigned) [Compound 82]	77%	
120 nM	C=CC(=O)N1CCN(C(C)=O)C[C@H]1c1cc(Cl)cc(-c2cc(N)ncn2)c1 (single isomer, unassigned) [Compound 187]	71%	
70 nM	C=CC(=O)N1[C@H](C(=O)N(C)C)COC[C@H]1c1cc(Cl)nc(-c2cc(N)ncn2)c1 (single isomer, unassigned) [Compound 169]	82%	
170 nM	C=CC(=O)N1CCOC[C@H]1c1cc(Cl)cc(C2CNC(=S)CO2)c1 (single isomer, unassigned) [Compound 241]		87%
17 nM	C=CC(=O)N1CCOC[C@H]1c1cc(Cl)cc(-c2ncc(OC)cn2)c1 (single isomer, unassigned) [Compound 103]	85%	
